Test results reported in PubChem BioAssay (NCI).
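Five compound concentrations were applied to cells in 96-well plates for 48 hours; endpoints were derived by simple linear interpolation of the resulting dose-response curve. TGI is the concentration that stops growth completely.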

Assays:
Assay in all cases: growth of human tumour cells (NCI), 48 h
786-0 renal = system: 786-0 renal
A549 NSCLC = system: A549 NSCLC
ACHN renal = system: ACHN renal
CAKI-1 renal = system: CAKI-1 renal
CCRF-CEM leukemia = system: CCRF-CEM leukemia
COLO 205 colon = system: COLO 205 colon
DLD-1 colon = system: DLD-1 colon
DMS 114 small cell lung = system: DMS 114 small cell lung
DMS 273 small cell lung = system: DMS 273 small cell lung
EKVX NSCLC = system: EKVX NSCLC
HCC-2998 colon = system: HCC-2998 colon
HCT-116 colon = system: HCT-116 colon
HCT-15 colon = system: HCT-15 colon
HL-60(TB) leukemia = system: HL-60(TB) leukemia
HOP-62 NSCLC = system: HOP-62 NSCLC
HOP-92 NSCLC = system: HOP-92 NSCLC
HT29 colon = system: HT29 colon
IGROV1 ovarian = system: IGROV1 ovarian
K-562 leukemia = system: K-562 leukemia
KM12 colon = system: KM12 colon
KM20L2 colon = system: KM20L2 colon
LOX IMVI melanoma = system: LOX IMVI melanoma
LXFL 529 NSCLC = system: LXFL 529 NSCLC
M14 melanoma = system: M14 melanoma
M19-MEL melanoma = system: M19-MEL melanoma
MALME-3M melanoma = system: MALME-3M melanoma
MOLT-4 leukemia = system: MOLT-4 leukemia
NCI-H226 lung = system: NCI-H226 lung
NCI-H23 lung = system: NCI-H23 lung
NCI-H460 lung = system: NCI-H460 lung
NCI-H522 lung = system: NCI-H522 lung
OVCAR-3 ovarian = system: OVCAR-3 ovarian
OVCAR-4 ovarian = system: OVCAR-4 ovarian
OVCAR-5 ovarian = system: OVCAR-5 ovarian
OVCAR-8 ovarian = system: OVCAR-8 ovarian
RPMI-8226 leukemia = system: RPMI-8226 leukemia
RXF 393 renal = system: RXF 393 renal
SF-268 CNS = system: SF-268 CNS
SF-295 CNS = system: SF-295 CNS
SF-539 CNS = system: SF-539 CNS
SK-MEL-2 melanoma = system: SK-MEL-2 melanoma
SK-MEL-28 melanoma = system: SK-MEL-28 melanoma
SK-MEL-5 melanoma = system: SK-MEL-5 melanoma
SK-OV-3 ovarian = system: SK-OV-3 ovarian
SN12C renal = system: SN12C renal
SNB-19 CNS = system: SNB-19 CNS
SNB-75 CNS = system: SNB-75 CNS
SNB-78 CNS = system: SNB-78 CNS
SR leukemia = system: SR leukemia
SW-620 colon = system: SW-620 colon
TK-10 renal = system: TK-10 renal
U251 CNS = system: U251 CNS
UACC-257 melanoma = system: UACC-257 melanoma
UACC-62 melanoma = system: UACC-62 melanoma
UO-31 renal = system: UO-31 renal
XF 498 CNS = system: XF 498 CNS
A498 renal = system: A498 renal
HOP-18 NSCLC = system: HOP-18 NSCLC

`Cn1cccc(C(=O)c2ccccc2)c1=O` gave a TGI (786-0 renal) of over 100 µM, a TGI (A549 NSCLC) of over 100 µM and a TGI (ACHN renal) of over 100 µM. It also gave a TGI (CAKI-1 renal) of over 100 µM, a TGI (CCRF-CEM leukemia) of over 100 µM and a TGI (COLO 205 colon) of over 100 µM. The TGI (DLD-1 colon) was over 100 µM, the TGI (DMS 114 small cell lung) was over 100 µM and the TGI (DMS 273 small cell lung) was over 100 µM. The TGI (EKVX NSCLC) was over 100 µM, the TGI (HCC-2998 colon) was over 100 µM and the TGI (HCT-116 colon) was over 100 µM. It also gave a TGI (HCT-15 colon) of over 100 µM, a TGI (HL-60(TB) leukemia) of over 100 µM and a TGI (HOP-62 NSCLC) of over 100 µM. For the same molecule, the TGI (HOP-92 NSCLC) was over 100 µM, the TGI (HT29 colon) was over 100 µM and the TGI (IGROV1 ovarian) was over 100 µM. It also gave a TGI (K-562 leukemia) of over 100 µM, a TGI (KM12 colon) of over 100 µM and a TGI (KM20L2 colon) of over 100 µM. The TGI (LOX IMVI melanoma) was over 100 µM, the TGI (LXFL 529 NSCLC) was over 100 µM and the TGI (M14 melanoma) was over 100 µM. The TGI (M19-MEL melanoma) was over 100 µM, the TGI (MALME-3M melanoma) was over 100 µM and the TGI (MOLT-4 leukemia) was over 100 µM. It also gave a TGI (NCI-H226 lung) of over 100 µM, a TGI (NCI-H23 lung) of over 100 µM and a TGI (NCI-H460 lung) of over 100 µM. The TGI (NCI-H522 lung) was over 100 µM, the TGI (OVCAR-3 ovarian) was over 100 µM and the TGI (OVCAR-4 ovarian) was over 100 µM. The TGI (OVCAR-5 ovarian) was over 100 µM, the TGI (OVCAR-8 ovarian) was over 100 µM and the TGI (RPMI-8226 leukemia) was over 100 µM. For the same molecule, the TGI (RXF 393 renal) was over 100 µM, the TGI (SF-268 CNS) was over 100 µM and the TGI (SF-295 CNS) was over 100 µM. It also gave a TGI (SF-539 CNS) of over 100 µM, a TGI (SK-MEL-2 melanoma) of over 100 µM and a TGI (SK-MEL-28 melanoma) of over 100 µM. It also gave a TGI (SK-MEL-5 melanoma) of over 100 µM, a TGI (SK-OV-3 ovarian) of over 100 µM and a TGI (SN12C renal) of over 100 µM. It also gave a TGI (SNB-19 CNS) of over 100 µM, a TGI (SNB-75 CNS) of over 100 µM and a TGI (SNB-78 CNS) of over 100 µM. The TGI (SR leukemia) was over 100 µM, the TGI (SW-620 colon) was over 100 µM and the TGI (TK-10 renal) was over 100 µM. For the same molecule, the TGI (U251 CNS) was over 100 µM, the TGI (UACC-257 melanoma) was over 100 µM and the TGI (UACC-62 melanoma) was over 100 µM. The TGI (UO-31 renal) was over 100 µM and the TGI (XF 498 CNS) was over 100 µM.
`CC1=Nn2c(nnc2-c2ccccc2Cl)NC(C)(C)C1` was tested, and the TGI (786-0 renal) was over 100 µM, the TGI (A549 NSCLC) was over 100 µM and the TGI (ACHN renal) was over 100 µM. The TGI (CAKI-1 renal) was over 100 µM, the TGI (CCRF-CEM leukemia) was over 100 µM and the TGI (COLO 205 colon) was over 100 µM. For the same molecule, the TGI (DLD-1 colon) was over 100 µM, the TGI (DMS 273 small cell lung) was over 100 µM and the TGI (EKVX NSCLC) was over 100 µM. The TGI (HCC-2998 colon) was over 100 µM, the TGI (HCT-116 colon) was over 100 µM and the TGI (HCT-15 colon) was over 100 µM. The TGI (HL-60(TB) leukemia) was over 100 µM, the TGI (HOP-62 NSCLC) was over 100 µM and the TGI (HOP-92 NSCLC) was over 100 µM. For the same molecule, the TGI (HT29 colon) was over 100 µM, the TGI (IGROV1 ovarian) was over 100 µM and the TGI (K-562 leukemia) was over 100 µM. It also gave a TGI (KM12 colon) of over 100 µM, a TGI (KM20L2 colon) of over 100 µM and a TGI (LOX IMVI melanoma) of over 100 µM. For the same molecule, the TGI (LXFL 529 NSCLC) was over 100 µM, the TGI (M14 melanoma) was over 100 µM and the TGI (M19-MEL melanoma) was over 100 µM. The TGI (MOLT-4 leukemia) was over 100 µM, the TGI (NCI-H226 lung) was over 100 µM and the TGI (NCI-H23 lung) was over 100 µM. It also gave a TGI (NCI-H460 lung) of over 100 µM, a TGI (NCI-H522 lung) of over 100 µM and a TGI (OVCAR-4 ovarian) of over 100 µM. The TGI (OVCAR-5 ovarian) was over 100 µM, the TGI (OVCAR-8 ovarian) was over 100 µM and the TGI (RPMI-8226 leukemia) was 54.3 µM. For the same molecule, the TGI (SF-268 CNS) was over 100 µM, the TGI (SF-295 CNS) was over 100 µM and the TGI (SF-539 CNS) was over 100 µM. It also gave a TGI (SK-MEL-2 melanoma) of over 100 µM, a TGI (SK-MEL-28 melanoma) of over 100 µM and a TGI (SK-MEL-5 melanoma) of over 100 µM. For the same molecule, the TGI (SK-OV-3 ovarian) was over 100 µM, the TGI (SN12C renal) was over 100 µM and the TGI (SNB-19 CNS) was over 100 µM. For the same molecule, the TGI (SNB-75 CNS) was over 100 µM, the TGI (SNB-78 CNS) was over 100 µM and the TGI (SR leukemia) was 74.4 µM. The TGI (SW-620 colon) was 35.8 µM, the TGI (TK-10 renal) was over 100 µM and the TGI (U251 CNS) was over 100 µM. It also gave a TGI (UACC-62 melanoma) of over 100 µM, a TGI (UO-31 renal) of over 100 µM and a TGI (XF 498 CNS) of over 100 µM.
`CN(C)CC/C(=N\Nc1c(F)c(F)c(F)c(F)c1F)c1ccccc1` was tested, and the TGI (786-0 renal) was over 100 µM, the TGI (A498 renal) was over 100 µM and the TGI (A549 NSCLC) was over 100 µM. The TGI (ACHN renal) was over 100 µM, the TGI (CCRF-CEM leukemia) was 95.5 µM and the TGI (COLO 205 colon) was over 100 µM. It also gave a TGI (DLD-1 colon) of over 100 µM, a TGI (DMS 114 small cell lung) of 79.2 µM and a TGI (DMS 273 small cell lung) of over 100 µM. It also gave a TGI (EKVX NSCLC) of over 100 µM, a TGI (HCT-116 colon) of over 100 µM and a TGI (HCT-15 colon) of over 100 µM. The TGI (HL-60(TB) leukemia) was 28.2 µM, the TGI (HOP-18 NSCLC) was over 100 µM and the TGI (HT29 colon) was over 100 µM. It also gave a TGI (IGROV1 ovarian) of over 100 µM, a TGI (K-562 leukemia) of over 100 µM and a TGI (KM12 colon) of over 100 µM. For the same molecule, the TGI (KM20L2 colon) was over 100 µM, the TGI (LOX IMVI melanoma) was over 100 µM and the TGI (LXFL 529 NSCLC) was over 100 µM. It also gave a TGI (M19-MEL melanoma) of over 100 µM, a TGI (MALME-3M melanoma) of over 100 µM and a TGI (MOLT-4 leukemia) of over 100 µM. The TGI (NCI-H23 lung) was over 100 µM, the TGI (NCI-H460 lung) was over 100 µM and the TGI (NCI-H522 lung) was over 100 µM. It also gave a TGI (OVCAR-4 ovarian) of over 100 µM, a TGI (OVCAR-5 ovarian) of over 100 µM and a TGI (OVCAR-8 ovarian) of over 100 µM. For the same molecule, the TGI (RPMI-8226 leukemia) was 70.5 µM, the TGI (RXF 393 renal) was over 100 µM and the TGI (SF-268 CNS) was over 100 µM. The TGI (SF-295 CNS) was over 100 µM, the TGI (SF-539 CNS) was over 100 µM and the TGI (SK-MEL-2 melanoma) was over 100 µM. The TGI (SK-MEL-28 melanoma) was over 100 µM, the TGI (SK-MEL-5 melanoma) was 28 µM and the TGI (SK-OV-3 ovarian) was over 100 µM. It also gave a TGI (SN12C renal) of over 100 µM, a TGI (SNB-19 CNS) of over 100 µM and a TGI (SNB-75 CNS) of 13.1 µM. The TGI (SNB-78 CNS) was over 100 µM, the TGI (SR leukemia) was 47.9 µM and the TGI (SW-620 colon) was over 100 µM. For the same molecule, the TGI (TK-10 renal) was over 100 µM, the TGI (U251 CNS) was over 100 µM and the TGI (UACC-257 melanoma) was 80.6 µM. For the same molecule, the TGI (UACC-62 melanoma) was over 100 µM and the TGI (UO-31 renal) was 63.4 µM.
